Data from ChEMBL document CHEMBL5715956, “Selective Targeting of Bromodomains of the Bromodomain-PHD Fingers Family Impairs Osteoclast Differentiation” (ACS Chem Biol, 2017).

Columns and labels:
[1] = biological target: T1, Bromodomain-containing protein 1 (Homo sapiens) (UniProt O95696); test: Binding affinity to BRPF2 (unknown origin) assessed as change in enthalpy at 12 uM by Isothermal titration calorimetry
T1 sequence (whole entry): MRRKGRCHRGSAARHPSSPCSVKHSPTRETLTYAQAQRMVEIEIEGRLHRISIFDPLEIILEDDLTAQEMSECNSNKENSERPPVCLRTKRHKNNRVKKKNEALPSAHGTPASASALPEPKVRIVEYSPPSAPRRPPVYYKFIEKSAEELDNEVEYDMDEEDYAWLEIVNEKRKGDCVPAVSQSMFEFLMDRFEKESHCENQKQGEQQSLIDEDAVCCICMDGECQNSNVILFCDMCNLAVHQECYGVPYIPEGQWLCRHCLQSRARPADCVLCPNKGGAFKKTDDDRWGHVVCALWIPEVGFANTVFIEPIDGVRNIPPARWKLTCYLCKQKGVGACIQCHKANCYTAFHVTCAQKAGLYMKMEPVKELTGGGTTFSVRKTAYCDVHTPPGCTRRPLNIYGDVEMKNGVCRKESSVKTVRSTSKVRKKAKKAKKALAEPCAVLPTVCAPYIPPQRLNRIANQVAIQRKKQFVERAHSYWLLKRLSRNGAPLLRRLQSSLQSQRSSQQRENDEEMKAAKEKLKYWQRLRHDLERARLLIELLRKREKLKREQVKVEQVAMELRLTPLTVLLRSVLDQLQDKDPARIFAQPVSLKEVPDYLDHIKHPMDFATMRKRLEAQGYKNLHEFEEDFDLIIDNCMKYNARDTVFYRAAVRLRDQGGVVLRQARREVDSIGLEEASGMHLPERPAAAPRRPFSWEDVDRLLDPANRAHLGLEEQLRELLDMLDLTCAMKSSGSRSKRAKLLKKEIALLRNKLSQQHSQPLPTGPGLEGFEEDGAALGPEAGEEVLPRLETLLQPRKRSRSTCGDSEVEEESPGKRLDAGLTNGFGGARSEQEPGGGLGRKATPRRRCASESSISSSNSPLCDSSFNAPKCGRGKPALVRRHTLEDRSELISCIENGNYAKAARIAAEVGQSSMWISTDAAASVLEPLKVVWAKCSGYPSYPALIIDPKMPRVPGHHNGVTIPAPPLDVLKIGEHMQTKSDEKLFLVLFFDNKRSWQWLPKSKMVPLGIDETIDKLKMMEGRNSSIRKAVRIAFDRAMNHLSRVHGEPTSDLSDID

[2] = biological target: T2, Bromodomain and PHD finger-containing protein 3 (Homo sapiens) (UniProt Q9ULD4); test: Binding affinity to BRPF3 (unknown origin) assessed as change in enthalpy at 12 uM by Isothermal titration calorimetry
T2 sequence (whole entry): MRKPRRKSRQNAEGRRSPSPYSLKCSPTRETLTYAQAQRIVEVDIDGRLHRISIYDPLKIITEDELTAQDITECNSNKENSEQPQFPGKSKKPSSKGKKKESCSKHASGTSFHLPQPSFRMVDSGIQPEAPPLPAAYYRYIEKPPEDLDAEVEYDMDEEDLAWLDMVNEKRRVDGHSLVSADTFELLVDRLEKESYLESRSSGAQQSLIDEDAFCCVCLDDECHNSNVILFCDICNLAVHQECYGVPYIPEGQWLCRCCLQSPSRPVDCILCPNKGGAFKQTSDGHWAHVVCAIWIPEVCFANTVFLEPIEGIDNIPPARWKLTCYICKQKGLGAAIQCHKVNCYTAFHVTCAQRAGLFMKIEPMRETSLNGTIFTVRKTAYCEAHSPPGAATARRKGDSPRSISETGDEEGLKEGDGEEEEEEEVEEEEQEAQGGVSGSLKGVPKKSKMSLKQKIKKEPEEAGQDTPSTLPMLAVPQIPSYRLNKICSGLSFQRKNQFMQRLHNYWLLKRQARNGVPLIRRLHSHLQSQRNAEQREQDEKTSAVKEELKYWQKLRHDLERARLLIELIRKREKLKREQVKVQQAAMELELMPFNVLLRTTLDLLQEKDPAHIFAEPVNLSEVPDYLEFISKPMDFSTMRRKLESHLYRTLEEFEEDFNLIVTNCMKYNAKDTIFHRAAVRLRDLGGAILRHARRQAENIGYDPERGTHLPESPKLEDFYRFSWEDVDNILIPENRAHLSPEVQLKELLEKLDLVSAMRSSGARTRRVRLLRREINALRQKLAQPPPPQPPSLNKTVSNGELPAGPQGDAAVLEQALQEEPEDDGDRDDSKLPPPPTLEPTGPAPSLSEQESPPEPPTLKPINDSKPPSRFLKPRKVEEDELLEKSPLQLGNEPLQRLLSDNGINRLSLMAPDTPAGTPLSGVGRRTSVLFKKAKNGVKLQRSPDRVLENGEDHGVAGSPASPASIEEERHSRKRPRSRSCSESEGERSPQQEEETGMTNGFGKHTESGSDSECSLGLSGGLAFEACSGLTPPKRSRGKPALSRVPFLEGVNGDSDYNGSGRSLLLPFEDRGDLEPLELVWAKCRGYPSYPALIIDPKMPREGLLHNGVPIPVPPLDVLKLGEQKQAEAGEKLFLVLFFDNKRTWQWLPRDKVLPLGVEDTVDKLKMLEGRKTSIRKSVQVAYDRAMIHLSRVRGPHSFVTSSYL

[3] = biological target: Bromodomain-containing protein 4 (Homo sapiens) (UniProt O60885); test: Binding affinity to BRD4 BD1 (unknown origin) assessed as change in entropy TdeltaS at 14 uM by Isothermal titration calorimetry
[4] = biological target: Adenosine receptor A1 (Homo sapiens) (UniProt P30542); test: Binding affinity to A1 receptor (unknown origin) assessed as specific binding at 10 uM relative to control
Sequence of Adenosine receptor A1 (Homo sapiens) (P30542 whole entry): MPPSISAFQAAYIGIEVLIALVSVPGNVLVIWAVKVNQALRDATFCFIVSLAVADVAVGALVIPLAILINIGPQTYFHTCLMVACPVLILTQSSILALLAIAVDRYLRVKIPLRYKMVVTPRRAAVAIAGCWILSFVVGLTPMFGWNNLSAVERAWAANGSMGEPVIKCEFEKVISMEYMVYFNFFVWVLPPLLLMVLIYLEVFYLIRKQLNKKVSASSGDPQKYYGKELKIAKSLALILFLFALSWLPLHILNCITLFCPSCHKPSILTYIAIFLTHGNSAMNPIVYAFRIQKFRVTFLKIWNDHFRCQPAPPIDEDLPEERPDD

[5] = biological target: Transcription intermediary factor 1-alpha (Homo sapiens, UniProt O15164)
[6] = biological target: Bromodomain adjacent to zinc finger domain protein 2B (Homo sapiens) (UniProt Q9UIF8); conditions: dose 10.0 µM
Sequence of Bromodomain adjacent to zinc finger domain protein 2B (Homo sapiens) (Q9UIF8 whole entry, the tested form may be a part): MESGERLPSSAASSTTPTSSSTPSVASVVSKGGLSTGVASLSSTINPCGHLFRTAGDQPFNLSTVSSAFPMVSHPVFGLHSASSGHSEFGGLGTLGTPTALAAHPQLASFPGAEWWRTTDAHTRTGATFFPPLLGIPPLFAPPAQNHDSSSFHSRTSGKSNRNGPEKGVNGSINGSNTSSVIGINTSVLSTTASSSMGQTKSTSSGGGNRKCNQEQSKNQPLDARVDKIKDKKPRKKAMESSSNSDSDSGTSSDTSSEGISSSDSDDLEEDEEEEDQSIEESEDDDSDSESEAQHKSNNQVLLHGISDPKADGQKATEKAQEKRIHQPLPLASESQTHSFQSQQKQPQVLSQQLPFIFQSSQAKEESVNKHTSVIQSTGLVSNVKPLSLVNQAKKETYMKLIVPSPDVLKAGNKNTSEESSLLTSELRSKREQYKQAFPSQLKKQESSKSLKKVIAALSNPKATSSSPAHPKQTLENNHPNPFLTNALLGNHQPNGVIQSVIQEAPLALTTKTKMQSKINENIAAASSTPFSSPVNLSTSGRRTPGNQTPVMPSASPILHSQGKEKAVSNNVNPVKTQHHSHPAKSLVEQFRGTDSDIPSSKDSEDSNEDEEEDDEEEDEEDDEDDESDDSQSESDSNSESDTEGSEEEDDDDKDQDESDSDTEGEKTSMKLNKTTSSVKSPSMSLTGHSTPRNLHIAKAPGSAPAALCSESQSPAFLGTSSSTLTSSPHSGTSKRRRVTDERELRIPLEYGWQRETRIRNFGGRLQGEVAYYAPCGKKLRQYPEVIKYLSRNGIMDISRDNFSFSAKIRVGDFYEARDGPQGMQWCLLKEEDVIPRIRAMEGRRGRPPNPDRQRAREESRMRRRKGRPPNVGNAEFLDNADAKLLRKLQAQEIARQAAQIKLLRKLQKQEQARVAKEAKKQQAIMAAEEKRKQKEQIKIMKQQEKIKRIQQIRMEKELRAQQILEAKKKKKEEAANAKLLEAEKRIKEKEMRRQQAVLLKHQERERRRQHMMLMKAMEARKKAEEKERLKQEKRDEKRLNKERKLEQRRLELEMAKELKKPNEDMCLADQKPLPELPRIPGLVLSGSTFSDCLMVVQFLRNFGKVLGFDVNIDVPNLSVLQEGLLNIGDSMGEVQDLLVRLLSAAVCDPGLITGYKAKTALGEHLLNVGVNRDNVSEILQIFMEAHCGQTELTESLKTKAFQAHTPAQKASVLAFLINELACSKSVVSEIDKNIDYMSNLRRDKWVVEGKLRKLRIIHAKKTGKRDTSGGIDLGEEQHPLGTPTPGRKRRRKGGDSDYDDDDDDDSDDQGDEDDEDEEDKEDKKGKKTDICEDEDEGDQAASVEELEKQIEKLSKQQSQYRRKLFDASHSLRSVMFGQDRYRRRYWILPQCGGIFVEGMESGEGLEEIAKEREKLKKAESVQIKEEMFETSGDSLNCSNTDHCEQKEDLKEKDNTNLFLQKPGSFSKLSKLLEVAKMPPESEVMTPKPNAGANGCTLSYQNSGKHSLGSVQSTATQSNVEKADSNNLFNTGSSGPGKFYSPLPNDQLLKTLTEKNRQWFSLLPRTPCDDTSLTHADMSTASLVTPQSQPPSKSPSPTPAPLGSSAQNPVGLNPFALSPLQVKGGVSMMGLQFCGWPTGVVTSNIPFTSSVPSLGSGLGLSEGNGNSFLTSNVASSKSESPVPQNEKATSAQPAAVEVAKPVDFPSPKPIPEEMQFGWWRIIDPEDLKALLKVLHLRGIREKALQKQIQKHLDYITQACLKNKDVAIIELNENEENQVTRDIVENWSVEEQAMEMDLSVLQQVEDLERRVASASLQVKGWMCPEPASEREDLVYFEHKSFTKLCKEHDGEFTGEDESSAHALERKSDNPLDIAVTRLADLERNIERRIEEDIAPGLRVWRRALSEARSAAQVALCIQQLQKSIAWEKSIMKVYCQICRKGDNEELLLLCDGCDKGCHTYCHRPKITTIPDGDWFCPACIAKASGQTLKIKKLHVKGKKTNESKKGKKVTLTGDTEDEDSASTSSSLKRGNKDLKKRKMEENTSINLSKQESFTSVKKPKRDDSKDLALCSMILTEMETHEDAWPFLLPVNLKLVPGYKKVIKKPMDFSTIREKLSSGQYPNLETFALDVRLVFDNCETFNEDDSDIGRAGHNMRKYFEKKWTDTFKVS

[7] = biological target: Bromodomain-containing protein 4 (Homo sapiens) (UniProt O60885); conditions: dose 10.0 µM
[8] = biological target: Bromodomain-containing protein 9 (Homo sapiens) (UniProt Q9H8M2); conditions: dose 10.0 µM
[9] = biological target: Chromatin remodeling regulator CECR2 (Homo sapiens) (UniProt Q9BXF3); conditions: dose 10.0 µM
Sequence of Chromatin remodeling regulator CECR2 (Homo sapiens) (Q9BXF3 whole entry, looked up): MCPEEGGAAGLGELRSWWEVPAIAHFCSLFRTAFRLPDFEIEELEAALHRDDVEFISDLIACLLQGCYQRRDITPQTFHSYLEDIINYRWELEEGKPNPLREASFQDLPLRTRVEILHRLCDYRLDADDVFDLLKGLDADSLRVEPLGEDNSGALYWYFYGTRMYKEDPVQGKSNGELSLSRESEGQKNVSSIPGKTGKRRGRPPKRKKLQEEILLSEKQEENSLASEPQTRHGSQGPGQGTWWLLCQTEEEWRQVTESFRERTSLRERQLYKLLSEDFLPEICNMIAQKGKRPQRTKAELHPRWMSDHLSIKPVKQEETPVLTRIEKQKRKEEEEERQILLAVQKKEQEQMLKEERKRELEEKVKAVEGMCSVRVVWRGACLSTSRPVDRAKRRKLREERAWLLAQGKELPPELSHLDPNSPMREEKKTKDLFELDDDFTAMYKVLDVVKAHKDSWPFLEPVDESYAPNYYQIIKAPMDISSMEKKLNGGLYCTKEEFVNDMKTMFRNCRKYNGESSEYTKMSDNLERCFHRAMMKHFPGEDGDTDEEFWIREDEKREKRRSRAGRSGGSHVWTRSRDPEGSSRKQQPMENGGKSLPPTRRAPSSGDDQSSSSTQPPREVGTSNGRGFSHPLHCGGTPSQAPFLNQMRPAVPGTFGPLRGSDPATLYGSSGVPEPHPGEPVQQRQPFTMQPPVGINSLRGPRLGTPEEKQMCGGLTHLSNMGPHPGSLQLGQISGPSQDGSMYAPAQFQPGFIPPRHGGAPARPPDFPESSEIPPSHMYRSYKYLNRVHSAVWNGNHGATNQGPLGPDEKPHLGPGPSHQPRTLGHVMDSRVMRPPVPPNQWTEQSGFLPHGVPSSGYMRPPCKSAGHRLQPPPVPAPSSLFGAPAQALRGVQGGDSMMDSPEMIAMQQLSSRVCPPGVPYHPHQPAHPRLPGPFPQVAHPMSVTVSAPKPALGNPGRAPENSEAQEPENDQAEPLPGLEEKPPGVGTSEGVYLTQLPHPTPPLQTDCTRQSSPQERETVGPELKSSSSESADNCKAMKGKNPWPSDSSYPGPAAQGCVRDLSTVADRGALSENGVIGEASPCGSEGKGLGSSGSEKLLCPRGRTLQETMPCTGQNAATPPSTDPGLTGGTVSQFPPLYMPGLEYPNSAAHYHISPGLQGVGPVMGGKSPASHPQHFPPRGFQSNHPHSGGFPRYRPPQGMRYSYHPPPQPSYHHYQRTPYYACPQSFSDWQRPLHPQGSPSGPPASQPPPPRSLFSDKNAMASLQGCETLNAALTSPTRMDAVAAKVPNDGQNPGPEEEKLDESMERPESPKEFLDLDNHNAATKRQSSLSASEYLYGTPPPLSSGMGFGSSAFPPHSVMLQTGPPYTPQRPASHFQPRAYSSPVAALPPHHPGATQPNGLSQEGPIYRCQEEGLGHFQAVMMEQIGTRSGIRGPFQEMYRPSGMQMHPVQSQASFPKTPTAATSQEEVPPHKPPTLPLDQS

[10] = biological target: Nucleosome-remodeling factor subunit BPTF (Homo sapiens) (UniProt Q12830); conditions: dose 10.0 µM
[11] = biological target: Histone-lysine N-methyltransferase 2A (Homo sapiens) (UniProt Q03164); conditions: dose 10.0 µM
[12] = biological target: Histone acetyltransferase KAT2B (Homo sapiens) (UniProt Q92831); conditions: dose 10.0 µM
Sequence of Histone acetyltransferase KAT2B (Homo sapiens) (Q92831 whole entry, looked up): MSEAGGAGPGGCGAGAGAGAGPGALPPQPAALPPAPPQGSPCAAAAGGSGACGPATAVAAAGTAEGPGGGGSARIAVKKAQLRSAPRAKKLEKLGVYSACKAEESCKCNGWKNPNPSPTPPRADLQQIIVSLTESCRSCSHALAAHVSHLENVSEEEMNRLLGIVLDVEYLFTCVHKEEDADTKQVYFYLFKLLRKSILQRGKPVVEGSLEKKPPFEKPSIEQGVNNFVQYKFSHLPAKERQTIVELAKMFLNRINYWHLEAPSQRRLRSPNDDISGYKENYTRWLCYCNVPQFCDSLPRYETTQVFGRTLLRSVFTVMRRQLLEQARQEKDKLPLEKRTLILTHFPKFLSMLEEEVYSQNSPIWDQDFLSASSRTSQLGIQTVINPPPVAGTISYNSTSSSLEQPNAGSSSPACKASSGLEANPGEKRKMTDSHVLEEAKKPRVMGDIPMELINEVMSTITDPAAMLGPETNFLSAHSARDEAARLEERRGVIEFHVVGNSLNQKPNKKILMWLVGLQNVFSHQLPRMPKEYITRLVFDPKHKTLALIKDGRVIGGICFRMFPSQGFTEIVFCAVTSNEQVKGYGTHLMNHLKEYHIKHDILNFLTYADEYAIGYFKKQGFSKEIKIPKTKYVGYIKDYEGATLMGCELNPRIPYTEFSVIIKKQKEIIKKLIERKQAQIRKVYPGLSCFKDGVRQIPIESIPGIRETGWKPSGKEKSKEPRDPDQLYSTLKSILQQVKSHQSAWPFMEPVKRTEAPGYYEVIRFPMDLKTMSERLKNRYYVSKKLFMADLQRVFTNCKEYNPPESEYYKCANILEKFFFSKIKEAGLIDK

[13] = biological target: Bromodomain and WD repeat-containing protein 1 (Homo sapiens) (UniProt Q9NSI6); conditions: dose 10.0 µM

deltaH [1]: -9.5 kcal/mol
deltaH [2]: -7.37 kcal/mol
TdeltaS [3]: 0.198 kcal/mol
Activity [4]: 19.8%
IC50 [5]: > 10 µM
ΔTm [6]: 0.9 °C
ΔTm [7]: 2 °C
ΔTm [8]: 1 °C
ΔTm [9]: 0.1 °C
ΔTm [10]: 0.9 °C
ΔTm [11]: 0.3 °C
ΔTm [12]: 0.3 °C
ΔTm [13]: 1 °C
SMILES: COc1cc2c(cc1NS(=O)(=O)c1ccc(Br)cc1C)n(C)c(=O)n2C
